Measured values published in patent US20260262643A1, “HERBICIDAL BENZOXAZINES” (FMC CORPORATION, priority 2022, published 2026).

Key:
blackgrass [1] = experiment: Test A preemergence; format: in vivo, Alopecurus myosuroides
In short: (§1)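 Greenhouse pot test, 10 days. Compound (non-phytotoxic solvent, surfactant) sprayed on soil at seeding or on seedlings at one- to two-leaf stage. Visual injury rated 0–100 against untreated plants.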

corn [2] = experiment: Test A preemergence; format: in vivo, Zea mays
In short: as §1

foxtail, giant [3] = experiment: Test A preemergence; format: in vivo, Setaria faberi
In short: as §1

goosegrass [4] = experiment: Test A preemergence; format: in vivo, Eleusine indica
In short: as §1

kochia [5] = experiment: Test A preemergence; format: in vivo, Bassia scoparia
In short: as §1

oat, wild [6] = experiment: Test A preemergence; format: in vivo, Avena fatua
In short: as §1

pigweed, palmer [7] = experiment: Test A preemergence; format: in vivo, Amaranthus palmeri
In short: as §1

ragweed [8] = experiment: Test A preemergence; format: in vivo, Ambrosia artemisiifolia
In short: as §1

ryegrass, Italian [9] = experiment: Test A preemergence; format: in vivo, Lolium multiflorum
In short: as §1

soybean [10] = experiment: Test A preemergence; format: in vivo, Glycine max
In short: as §1

wheat [11] = experiment: Test A preemergence; format: in vivo, Triticum aestivum
In short: as §1

blackgrass [12] = experiment: Test A postemergence; format: in vivo, Alopecurus myosuroides
In short: as §1

corn [13] = experiment: Test A postemergence; format: in vivo, Zea mays
In short: as §1

foxtail, giant [14] = experiment: Test A postemergence; format: in vivo, Setaria faberi
In short: as §1

goosegrass [15] = experiment: Test A postemergence; format: in vivo, Eleusine indica
In short: as §1

kochia [16] = experiment: Test A postemergence; format: in vivo, Bassia scoparia
In short: as §1

oat, wild [17] = experiment: Test A postemergence; format: in vivo, Avena fatua
In short: as §1

pigweed, palmer [18] = experiment: Test A postemergence; format: in vivo, Amaranthus palmeri
In short: as §1

ragweed [19] = experiment: Test A postemergence; format: in vivo, Ambrosia artemisiifolia
In short: as §1

ryegrass, Italian [20] = experiment: Test A postemergence; format: in vivo, Lolium multiflorum
In short: as §1

soybean [21] = experiment: Test A postemergence; format: in vivo, Glycine max
In short: as §1

wheat [22] = experiment: Test A postemergence; format: in vivo, Triticum aestivum
In short: as §1

galium = experiment: Test A postemergence; format: in vivo, Galium aparine
In short: as §1

horseweed = experiment: Test A postemergence; format: in vivo, Erigeron canadensis
In short: as §1

barnyardgrass = experiment: Test B flooded paddy test; format: in vivo, Echinochloa crus-galli; conditions: 250 g ai/ha, Flood, 13 days, 0 to 100 scale (0 no effect, 100 complete control)
In short: (§2)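 Compound is introduced into paddy water covering soil by 3 cm, treating plants that have reached two leaves. Pots are kept flooded at that depth under greenhouse conditions. Assessment at 13 days gives a 0–100 visual control score.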

ducksalad = experiment: Test B flooded paddy test; format: in vivo, Heteranthera limosa; conditions: 250 g ai/ha, Flood, 13 days, 0 to 100 scale (0 no effect, 100 complete control)
In short: as §2

rice = experiment: Test B flooded paddy test; format: in vivo, Oryza sativa; conditions: 250 g ai/ha, Flood, 13 days, 0 to 100 scale (0 no effect, 100 complete control)
In short: as §2

sedge, umbrella = experiment: Test B flooded paddy test; format: in vivo, Cyperus difformis; conditions: 250 g ai/ha, Flood, 13 days, 0 to 100 scale (0 no effect, 100 complete control)
In short: as §2

[23] = 125 g ai/ha, visual injury after 10 days, 0 to 100 scale, 0 is no effect, 100 is complete control
[24] = 500 g ai/ha, 0 to 100 scale (0 no effect, 100 complete control), 10 days
[25] = 125 g ai/ha, postemergence, 10 days, visual injury, 0 to 100 scale (0 no effect, 100 complete control)
[26] = 500 g ai/ha, Postemergence, 0 to 100 scale

SMILES: Cc1c(C(=O)N2CC(C)Oc3c(Cl)cccc32)cccc1-n1cncn1 (stereo not shown) [Compound 40]
- Plant response rating, Blackgrass (blackgrass [1]; [23]): 0
- Plant response rating, Blackgrass (blackgrass [1]; [24]): 0
- Plant response rating, Corn (corn [2]; [23]): 0
- Plant response rating, Corn (corn [2]; [24]): 0
- Plant response rating, Foxtail, Giant (foxtail, giant [3]; [23]): 0
- Plant response rating, Foxtail, Giant (foxtail, giant [3]; [24]): 0
- Plant response rating, Goosegrass (goosegrass [4]; [23]): 0
- Plant response rating, Goosegrass (goosegrass [4]; [24]): 0
- Plant response rating, Kochia (kochia [5]; [23]): 0
- Plant response rating, Kochia (kochia [5]; [24]): 0
- Plant response rating, Oat, Wild (oat, wild [6]; [23]): 0
- Plant response rating, Oat, Wild (oat, wild [6]; [24]): 0
- Plant response rating, Pigweed, Palmer (pigweed, palmer [7]; [23]): 0
- Plant response rating, Pigweed, Palmer (pigweed, palmer [7]; [24]): 0
- Plant response rating, Ragweed (ragweed [8]; [23]): 0
- Plant response rating, Ragweed (ragweed [8]; [24]): 0
- Plant response rating, Ryegrass, Italian (ryegrass, Italian [9]; [23]): 0
- Plant response rating, Ryegrass, Italian (ryegrass, Italian [9]; [24]): 0
- Plant response rating, Soybean (soybean [10]; [23]): 0
- Plant response rating, Soybean (soybean [10]; [24]): 40
- Plant response rating, Wheat (wheat [11]; [23]): 0
- Plant response rating, Wheat (wheat [11]; [24]): 0
- Plant response rating, Blackgrass (blackgrass [12]; [25]): 0
- Plant response rating, Blackgrass (blackgrass [12]; [26]): 0
- Plant response rating, Corn (corn [13]; [25]): 0
- Plant response rating, Corn (corn [13]; [26]): 0
- Plant response rating, Foxtail, Giant (foxtail, giant [14]; [25]): 0
- Plant response rating, Foxtail, Giant (foxtail, giant [14]; [26]): 0
- Plant response rating, Goosegrass (goosegrass [15]; [25]): 0
- Plant response rating, Goosegrass (goosegrass [15]; [26]): 0
- Plant response rating, Kochia (kochia [16]; [25]): 0
- Plant response rating, Kochia (kochia [16]; [26]): 10
- Plant response rating, Oat, Wild (oat, wild [17]; [25]): 0
- Plant response rating, Oat, Wild (oat, wild [17]; [26]): 0
- Plant response rating, Pigweed, Palmer (pigweed, palmer [18]; [25]): 0
- Plant response rating, Pigweed, Palmer (pigweed, palmer [18]; [26]): 0
- Plant response rating, Ragweed (ragweed [19]; [25]): 0
- Plant response rating, Ragweed (ragweed [19]; [26]): 0
- Plant response rating, Ryegrass, Italian (ryegrass, Italian [20]; [25]): 0
- Plant response rating, Ryegrass, Italian (ryegrass, Italian [20]; [26]): 0
- Plant response rating, Soybean (soybean [21]; [25]): 0
- Plant response rating, Soybean (soybean [21]; [26]): 20
- Plant response rating, Wheat (wheat [22]; [25]): 0
- Plant response rating, Wheat (wheat [22]; [26]): 0
- Plant response rating, Galium (galium; [25]): 30
- Plant response rating, Galium (galium; [26]): 0
- Plant response rating, Horseweed (horseweed; [25]): 0
- Plant response rating, Horseweed (horseweed; [26]): 0
- Plant response rating, Barnyardgrass (barnyardgrass): 0
- Plant response rating, Ducksalad (ducksalad): 0
- Plant response rating, Rice (rice): 0
- Plant response rating, Sedge, Umbrella (sedge, umbrella): 0
